The values that follow come from patent US12606544B2, “JAK1 selective kinase inhibitor” (DIZAL (JIANGSU) PHARMACEUTICAL CO., LTD., priority 2019, dated 2026).

One test has as its target T1, JAK2 (Homo sapiens, UniProt O60674).
T1 construct: purchased Carna Biosciences
Description: Lance Ultra Kinase Assay, recombinant JAK2. It counts as biochemical. As to conditions: 5 mM ATP. On the procedure: (§1) Recombinant JAK1, JAK2, JAK3 and TYK2 purchased from Carna Biosciences. The inhibition potency of compounds against JAK1, JAK2, JAK3 and TYK2 was assessed using Lance Ultra Kinase Assay.
(§2) In brief, recombinant kinases were pre-incubated in the presence or absence of compound at room temperature for 15 minutes. The reaction was initiated by the addition of 5 mM ATP and substrate peptide which could be phosphorylated by kinases in the reaction. After 60 minutes incubation, the reaction was stopped by the addition of the detection reagent mix containing EDTA. The fluorescence was measured at 615 nm and 665 nm, respectively with excitation wavelength at 320 nm. The calculated signal ratio of 665 nm/615 nm is proportional to the kinase activity.

For the next test, the target named is T2, TYK2 (Homo sapiens, UniProt P29597).
T2 construct: purchased Carna Biosciences
T2 sequence (P29597 whole entry): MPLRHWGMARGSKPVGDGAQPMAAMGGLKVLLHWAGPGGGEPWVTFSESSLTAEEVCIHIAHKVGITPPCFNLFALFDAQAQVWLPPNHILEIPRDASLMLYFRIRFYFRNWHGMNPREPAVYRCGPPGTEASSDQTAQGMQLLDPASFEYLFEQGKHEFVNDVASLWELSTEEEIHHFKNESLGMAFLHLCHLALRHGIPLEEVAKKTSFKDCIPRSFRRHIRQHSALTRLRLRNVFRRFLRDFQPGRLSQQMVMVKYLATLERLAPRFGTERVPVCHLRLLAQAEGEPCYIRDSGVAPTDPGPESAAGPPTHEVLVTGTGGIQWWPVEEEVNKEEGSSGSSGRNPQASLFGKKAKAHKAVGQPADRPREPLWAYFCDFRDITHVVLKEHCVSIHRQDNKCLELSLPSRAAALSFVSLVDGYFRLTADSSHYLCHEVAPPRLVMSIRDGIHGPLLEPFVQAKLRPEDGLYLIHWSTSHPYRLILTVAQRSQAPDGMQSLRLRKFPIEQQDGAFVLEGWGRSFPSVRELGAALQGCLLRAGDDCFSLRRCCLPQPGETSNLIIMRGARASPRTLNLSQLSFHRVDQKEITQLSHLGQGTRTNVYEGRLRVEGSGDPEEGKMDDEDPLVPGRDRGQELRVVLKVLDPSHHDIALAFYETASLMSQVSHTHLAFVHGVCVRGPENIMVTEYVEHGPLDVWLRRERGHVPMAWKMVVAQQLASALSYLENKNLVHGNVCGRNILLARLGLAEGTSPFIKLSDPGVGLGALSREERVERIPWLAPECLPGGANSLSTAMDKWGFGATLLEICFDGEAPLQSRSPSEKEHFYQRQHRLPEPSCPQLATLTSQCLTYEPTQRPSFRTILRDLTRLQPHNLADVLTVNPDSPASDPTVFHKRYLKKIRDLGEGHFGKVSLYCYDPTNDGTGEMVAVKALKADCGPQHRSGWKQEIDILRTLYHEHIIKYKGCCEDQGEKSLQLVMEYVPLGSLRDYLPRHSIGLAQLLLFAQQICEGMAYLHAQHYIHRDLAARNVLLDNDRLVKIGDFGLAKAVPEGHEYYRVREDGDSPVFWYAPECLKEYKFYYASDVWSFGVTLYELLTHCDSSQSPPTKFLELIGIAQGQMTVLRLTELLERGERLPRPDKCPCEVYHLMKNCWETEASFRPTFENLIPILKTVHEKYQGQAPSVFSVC
Description: Lance Ultra Kinase Assay, recombinant TYK2. It is filed as biochemical. As to conditions: 5 mM ATP. On the procedure:
as §1, §2

A further test concerns phosphorylation of STAT6. Description: Cellular p-STAT6 assay, IL-13 stimulated THP-1 cells, flow cytometry. It is filed as cell-based. As to conditions: IL-13 10 ng/ml, read-out: pSTAT6 IC50. On the procedure: To detect phosphorylated STAT6 (pSTAT6), THP-1 cells were harvested by centrifugation at 250 g for 5 min and resuspended in assay medium (RPMI1640+10% FBS) to 2×10^5 cells/well. Test compounds were applied to assay plates in serial dilution from 1 μM to 0.3 nM in DMSO. THP-1 cells were incubated with serial diluted compounds for 60 min at room temperature, followed by stimulation of interleukin (IL-13, 10 ng/ml) for 30 min, fixed in Cytofix buffer (BD Biosciences), and permeabilized in 90% methanol on ice. PE anti-pSTAT6 (BD Biosciences) antibodies were stained for 60 min at room temperature before being analyzed by flow cytometry. In the assay the compounds were thus diluted and dose-response curves for inhibition of the signal determine the IC50 for the compounds.
A general note: Flow cytometry measures light scatter and fluorescence of single cells or particles in a stream.

The target of the next test is T3, JAK3 (Homo sapiens, UniProt P52333).
T3 construct: purchased Carna Biosciences
T3 sequence (P52333 1-1124): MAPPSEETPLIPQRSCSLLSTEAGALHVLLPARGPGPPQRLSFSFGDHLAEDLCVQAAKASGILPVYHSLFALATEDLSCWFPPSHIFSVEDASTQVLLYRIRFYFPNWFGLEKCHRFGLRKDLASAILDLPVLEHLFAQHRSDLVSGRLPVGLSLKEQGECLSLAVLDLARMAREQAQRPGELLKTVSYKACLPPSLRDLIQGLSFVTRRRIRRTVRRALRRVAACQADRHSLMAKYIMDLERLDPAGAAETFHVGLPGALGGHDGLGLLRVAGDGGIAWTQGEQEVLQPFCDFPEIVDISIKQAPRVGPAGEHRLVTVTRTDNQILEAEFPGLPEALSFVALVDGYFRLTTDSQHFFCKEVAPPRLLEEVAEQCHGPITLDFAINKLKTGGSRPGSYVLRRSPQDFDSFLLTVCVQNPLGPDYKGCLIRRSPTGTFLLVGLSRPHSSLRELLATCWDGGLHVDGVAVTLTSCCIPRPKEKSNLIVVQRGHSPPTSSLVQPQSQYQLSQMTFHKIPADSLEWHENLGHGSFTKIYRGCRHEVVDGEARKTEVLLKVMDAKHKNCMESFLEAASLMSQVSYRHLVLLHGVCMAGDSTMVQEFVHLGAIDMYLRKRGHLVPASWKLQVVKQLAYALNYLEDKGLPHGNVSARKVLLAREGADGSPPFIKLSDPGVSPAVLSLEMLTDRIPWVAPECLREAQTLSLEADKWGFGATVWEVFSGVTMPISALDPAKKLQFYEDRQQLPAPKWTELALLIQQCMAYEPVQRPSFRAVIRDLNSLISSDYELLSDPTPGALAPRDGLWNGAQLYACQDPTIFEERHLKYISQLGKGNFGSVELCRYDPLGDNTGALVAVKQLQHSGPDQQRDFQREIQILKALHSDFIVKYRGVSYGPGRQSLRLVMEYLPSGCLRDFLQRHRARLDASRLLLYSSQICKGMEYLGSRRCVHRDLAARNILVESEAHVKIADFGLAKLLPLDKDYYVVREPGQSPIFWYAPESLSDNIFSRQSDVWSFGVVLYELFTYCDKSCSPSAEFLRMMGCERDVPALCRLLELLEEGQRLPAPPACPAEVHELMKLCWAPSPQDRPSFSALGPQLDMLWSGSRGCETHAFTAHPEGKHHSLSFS
Description: Lance Ultra Kinase Assay, recombinant JAK3. It is filed as biochemical. As to conditions: 5 mM ATP. On the procedure:
as §1, §2

A further test has as its target T4, JAK1 (Homo sapiens, UniProt P23458).
T4 construct: purchased Carna Biosciences
Description: Lance Ultra Kinase Assay, recombinant JAK1. To be noted: 5 mM ATP. It counts as biochemical. On the procedure:
as §1, §2

[1] abbreviates: Homo sapiens, THP-1, THP-1 cells.

As a reminder, the pIC50 is −log10 of the IC50, conventionally taken in molar units.

SMILES strings stand for the structures. pIC50: −log10 of the molar value. Where two headings read alike, the source gives them in different places.

T1 sequence (O60674 whole entry): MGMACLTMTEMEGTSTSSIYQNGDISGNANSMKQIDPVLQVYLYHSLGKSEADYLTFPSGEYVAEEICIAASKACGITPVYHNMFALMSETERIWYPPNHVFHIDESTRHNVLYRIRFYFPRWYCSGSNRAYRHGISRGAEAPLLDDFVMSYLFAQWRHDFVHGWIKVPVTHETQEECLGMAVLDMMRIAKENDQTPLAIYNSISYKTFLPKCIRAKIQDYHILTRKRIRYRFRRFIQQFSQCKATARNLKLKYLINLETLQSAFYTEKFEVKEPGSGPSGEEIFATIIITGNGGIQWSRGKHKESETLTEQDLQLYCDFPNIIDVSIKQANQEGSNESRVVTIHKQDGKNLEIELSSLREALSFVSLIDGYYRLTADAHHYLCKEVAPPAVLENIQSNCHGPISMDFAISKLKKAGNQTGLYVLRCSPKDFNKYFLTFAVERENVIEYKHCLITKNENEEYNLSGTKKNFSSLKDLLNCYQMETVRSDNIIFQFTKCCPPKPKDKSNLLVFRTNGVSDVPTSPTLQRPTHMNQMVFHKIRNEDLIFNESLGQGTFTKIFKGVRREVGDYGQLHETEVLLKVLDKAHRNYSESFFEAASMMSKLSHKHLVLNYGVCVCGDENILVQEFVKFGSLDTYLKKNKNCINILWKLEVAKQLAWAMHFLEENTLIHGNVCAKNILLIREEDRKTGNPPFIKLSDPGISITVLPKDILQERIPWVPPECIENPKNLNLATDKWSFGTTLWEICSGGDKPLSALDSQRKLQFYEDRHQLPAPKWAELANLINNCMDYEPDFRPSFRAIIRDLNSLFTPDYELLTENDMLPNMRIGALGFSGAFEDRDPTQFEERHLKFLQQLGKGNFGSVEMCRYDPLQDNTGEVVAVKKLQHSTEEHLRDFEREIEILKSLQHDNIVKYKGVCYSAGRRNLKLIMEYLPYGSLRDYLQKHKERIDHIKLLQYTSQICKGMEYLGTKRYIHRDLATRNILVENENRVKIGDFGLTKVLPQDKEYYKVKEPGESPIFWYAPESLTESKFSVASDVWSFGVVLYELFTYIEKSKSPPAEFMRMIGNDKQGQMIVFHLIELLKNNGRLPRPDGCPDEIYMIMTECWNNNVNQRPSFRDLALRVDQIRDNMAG
T4 sequence (P23458 whole entry): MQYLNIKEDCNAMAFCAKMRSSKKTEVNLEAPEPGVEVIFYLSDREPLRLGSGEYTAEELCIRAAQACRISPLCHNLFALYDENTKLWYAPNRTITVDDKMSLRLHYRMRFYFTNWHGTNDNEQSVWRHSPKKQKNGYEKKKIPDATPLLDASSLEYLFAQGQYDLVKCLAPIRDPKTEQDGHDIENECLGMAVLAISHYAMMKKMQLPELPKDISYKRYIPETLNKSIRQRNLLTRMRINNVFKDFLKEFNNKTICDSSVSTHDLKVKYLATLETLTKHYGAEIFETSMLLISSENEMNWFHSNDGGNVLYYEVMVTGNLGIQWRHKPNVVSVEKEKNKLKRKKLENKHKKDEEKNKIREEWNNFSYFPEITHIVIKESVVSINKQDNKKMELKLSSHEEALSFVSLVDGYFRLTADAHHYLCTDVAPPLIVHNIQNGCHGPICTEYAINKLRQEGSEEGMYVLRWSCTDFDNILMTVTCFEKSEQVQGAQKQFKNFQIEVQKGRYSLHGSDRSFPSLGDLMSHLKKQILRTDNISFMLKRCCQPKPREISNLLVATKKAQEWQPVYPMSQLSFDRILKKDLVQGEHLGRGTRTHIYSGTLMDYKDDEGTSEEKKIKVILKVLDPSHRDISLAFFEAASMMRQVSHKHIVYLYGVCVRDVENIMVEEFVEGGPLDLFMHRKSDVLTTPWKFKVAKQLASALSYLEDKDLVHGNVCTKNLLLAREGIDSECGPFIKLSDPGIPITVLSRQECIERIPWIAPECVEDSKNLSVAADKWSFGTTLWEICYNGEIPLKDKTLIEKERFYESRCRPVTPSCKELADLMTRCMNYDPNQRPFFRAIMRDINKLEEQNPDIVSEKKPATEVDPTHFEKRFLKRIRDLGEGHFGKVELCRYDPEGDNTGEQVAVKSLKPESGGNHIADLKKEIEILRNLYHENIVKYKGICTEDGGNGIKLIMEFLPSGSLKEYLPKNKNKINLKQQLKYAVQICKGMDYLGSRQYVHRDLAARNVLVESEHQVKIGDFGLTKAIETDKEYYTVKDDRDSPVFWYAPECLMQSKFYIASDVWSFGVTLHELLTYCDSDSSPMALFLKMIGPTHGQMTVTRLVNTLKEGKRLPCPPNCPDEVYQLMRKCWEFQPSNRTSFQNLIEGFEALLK

As for `COC[C@H](C(=O)Nc1cccc2c(-c3nc(Nc4ccc5[nH]ccc5c4)ncc3F)c[nH]c12)N1CCN(C)CC1` [Example 41, (R)-N-(3-(2-((1H-indol-5-yl)amino)-5-fluoropyrimidin-4-yl)-1H-indol-7-yl)-3-methoxy-2-(4-methylpiperazin-1-yl)propanamide], the negative logarithm of the IC50 (pIC50) at JAK2 is 6.96; at TYK2 it was 5.85; in the test on phosphorylation of STAT6 (setting [1]), 7.90; at JAK3, less than 5.00; on JAK1, 9.66.
On to `CCOC(=O)Cc1ccc(Nc2ncc(F)c(-c3c[nH]c4c(NC(=O)[C@@H](COC)N5CCN(C)CC5)cccc34)n2)cn1` [Example 31, ethyl (R)-2-(5-((5-fluoro-4-(7-(3-methoxy-2-(4-methylpiperazin-1-yl)propanamido)-1H-indol-3-yl)pyrimidin-2-yl)amino)pyridin-2-yl)acetate], for which the negative logarithm of the IC50 (pIC50) at JAK2 was 6.66; at TYK2, 5.88; in the test with phosphorylation of STAT6 (setting [1]), 7.98; on JAK3, less than 5.00; on JAK1, 9.82.
In the same order, the values of `COC[C@H](C(=O)Nc1cccc2c(-c3nc(Nc4cnc(CO)c(C)c4)ncc3F)c[nH]c12)N1CCN(C)CC1` [Example 3, (R)-N-(3-(5-fluoro-2-((6-(hydroxymethyl)-5-methylpyridin-3-yl)amino)pyrimidin-4-yl)-1H-indol-7-yl)-3-methoxy-2-(4-methylpiperazin-1-yl)propanamide] are 8.40, 6.81, 8.35, 5.11 and 9.72.
For `COC[C@H](C(=O)Nc1cccc2c(-c3nc(Nc4ccc5c(CO)ncn5c4)ncc3F)c[nH]c12)N1CCN(C)CC1` [Example 46, (R)-N-(3-(5-fluoro-2-((1-(hydroxymethyl)imidazo[1,5-a]pyridin-6-yl)amino)pyrimidin-4-yl)-1H-indol-7-yl)-3-methoxy-2-(4-methylpiperazin-1-yl)propanainide] the same measures were 6.49, less than 5.00, 7.87, less than 5.00 and 8.82.
On to `COC[C@H](C(=O)Nc1cccc2c(-c3nc(Nc4ccc5c(C(=O)OC)n[nH]c5c4)ncc3F)c[nH]c12)N1CCN(C)CC1` [Example 44, methyl (R)-6-((5-fluoro-4-(7-(3-methoxy-2-(4-methylpiperazin-1-yl)propanamido)-1H-indol-3-yl)pyrimidin-2-yl)amino)-1H-indazole-3-carboxylate], for which the pIC50 is 6.83 on JAK2; less than 5.00 on TYK2; 7.88 with phosphorylation of STAT6 (setting [1]); less than 5.00 at JAK3; 9.57 on JAK1.
Take `COCCOc1ccc(Nc2ncc(F)c(-c3c[nH]c4c(NC(=O)[C@@H](COC)N5CCN(C)CC5)cccc34)n2)cn1` [Example 65, (R)-N-(3-(5-fluoro-2-((6-(2-methoxyethoxy)pyridin-3-yl)amino)pyrimidin-4-yl)-1H-indol-7-yl)-3-methoxy-2-(4-methylpiperazin-1-yl)propanamide]: the negative logarithm of the IC50 (pIC50) at JAK2 was 6.70; on TYK2, 5.90; in the test on phosphorylation of STAT6 (setting [1]) it was 7.73; on JAK3 it was less than 5.00; at JAK1, 9.49.
In the same order, the values of `CNCCOc1ccc(Nc2ncc(F)c(-c3c[nH]c4c(NC(=O)[C@@H](COC)N5CCN(C)CC5)cccc34)n2)cn1` [Example 20, (R)-N-(3-(5-fluoro-2-((6-(2-(methylamino)ethoxy)pyridin-3-yl)amino)pyrimidin-4-yl)-1H-indol-7-yl)-3-methoxy-2-(4-methylpiperazin-1-yl)propanamide] are 6.87, 5.62, 8.10, less than 5.00 and 9.19.
As to `COC[C@H](C(=O)Nc1cccc2c(-c3nc(Nc4cnc(CO)c(OC)c4)ncc3F)c[nH]c12)N1CCN(C)CC1` [Example 34, (R)-N-(3-(5-fluoro-2-((6-(hydroxymethyl)-5-methoxypyridin-3-yl)amino)pyrimidin-4-yl)-1H-indol-7-yl)-3-methoxy-2-(4-methylpiperazin-1-yl)propanamide], the pIC50 was 7.92 at JAK2; 6.35 at TYK2; 7.95 in the test with phosphorylation of STAT6 (setting [1]); less than 5.00 on JAK3; 9.74 on JAK1.
In the same order, the values of `COC[C@H](C(=O)Nc1cccc2c(-c3nc(Nc4cncc(CCCO)c4)ncc3F)c[nH]c12)N1CCN(C)CC1` [Example 25, (R)-N-(3-(5-fluoro-2-((5-(3-hydroxypropyl)pyridin-3-yl)amino)pyrimidin-4-yl)-1H-indol-7-yl)-3-methoxy-2-(4-methylpiperazin-1-yl)propanamide] are 8.05, 6.56, 8.05, less than 5.00 and 9.70.
Turning to `COC[C@H](C(=O)Nc1cccc2c(-c3nc(Nc4ccc(C(C)O)nc4)ncc3F)c[nH]c12)N1CCN(C)CC1` (single isomer, unassigned; isomer 1) [Example 29, 5-fluoro-2-((6-(1-hydroxyethyl)pyridin-3-yl)amino)pyrimidin-4-yl)-1H-indol-7-yl)-3-methoxy-2-(4-methylpiperazin-1-yl)propanamide (isomer 1)], the negative-log IC50 (pIC50) at JAK2 was 7.13; on TYK2, 6.03; in the test on phosphorylation of STAT6 (THP-1 cells), 8.01; at JAK3 it was less than 5.00; on JAK1, 9.51.
For the compound `COC[C@H](C(=O)Nc1cccc2c(-c3nc(Nc4ccc5[nH]ncc5c4)ncc3F)c[nH]c12)N1CCN(C)CC1` [Example 32, (R)-N-(3-(2-((1H-indazol-5-yl)amino)-5-fluoropyrimidin-4-yl)-1H-indol-7-yl)-3-methoxy-2-(4-methylpiperazin-1-yl)propanamide], the pIC50 is 7.06 on JAK2; 5.83 at TYK2; 7.97 with phosphorylation of STAT6 (setting [1]); 5.03 on JAK3; 9.80 on JAK1.
As for `COC[C@H](C(=O)Nc1cccc2c(-c3nc(Nc4cnn(-c5ccccc5C(=O)OC)c4)ncc3F)c[nH]c12)N1CCN(C)CC1` [Example 6, methyl (R)-2-(4-((5-fluoro-4-(7-(3-methoxy-2-(4-methylpiperazin-1-yl)propanamido)-1H-indol-3-yl)pyrimidin-2-yl)amino)-1H-pyrazol-1-yl)benzoate], the pIC50 was 6.34 at JAK2; 5.33 on TYK2; 8.22 in the test with phosphorylation of STAT6 (setting [1]); less than 5.00 on JAK3; 9.38 on JAK1.
Turning to `COC[C@H](C(=O)Nc1cccc2c(-c3nc(Nc4cnc5cn[nH]c5c4)ncc3F)c[nH]c12)N1CCN(C)CC1` [Example 19, (R)-N-(3-(2-((1H-pyrazolo[4,3-b]pyridin-6-yl)amino)-5-fluoropyrimidin-4-yl)-1H-indol-7-yl)-3-methoxy-2-(4-methylpiperazin-1-yl)propanamide], the negative-log IC50 (pIC50) at JAK2 is 6.67; with phosphorylation of STAT6 (setting [1]) it was 8.11; on JAK3, less than 5.00; at JAK1 it was 9.57.
